Structures are written as SMILES.

The record followed here is patent US20130225611A1, “Compositions and Methods for Reducing Cancer Cell Proliferation and Modulating Importin-Beta Function” (THE REGENTS OF THE UNIVERSITY OF CALIFORNIA, priority 2011, published 2013).

Assay [1] has as its target T1, interaction between RanGTP and importin-β (Homo sapiens, UniProt Q14974).
T1 construct: made in house; host or cells: BL21 cells (E. coli)
The experiment in a line: CFP-Ran/YFP-importin-β FRET assay. The following applies: spectrofluorimeter retest. Format: binding. The protocol: A reverse chemical genetic high-throughput screen (HTS) was performed to identify compounds that affect the interaction between RanGTP and importin-β using a fluorescence resonance energy transfer (FRET)-based assay with cyan fluorescent protein (CFP)-tagged Ran and yellow fluorescent protein (YFP)-tagged importin-β. These proteins bind one another only when CFP-Ran is guanosine triphosphate (GTP)-bound, which can be detected by changes in FRET (FIG. 1A and FIG. 1B). When CFP-Ran is incubated with RCC1, GTP, and YFP-importin-β, and the mixture is excited with 435 nm fluorescence in a fluorometer, a strong FRET signal is generated, as indicated by a decrease in the fluorescence intensity at 475 nm (the emission wavelength of CFP) and an increase in the fluorescence intensity at 525 nm (the emission wavelength of YFP). No FRET signal is generated if GDP is substituted for GTP, and nucleotide-specific interaction could also be observed biochemically, as S-tagged YFP-importin-β pulls CFP-Ran out of solution only in the presence of GTP. […]
The following reaction buffer was used for all FRET assays, including the high-throughput screen: 1× phosphate buffered saline (PBS), 5% glycerol, 2 mM MgCl2, 1 mM dithiothreitol (DTT), 0.01% NP-40. […] The reaction was excited using a Fluorolog 3 spectrofluorometer with 435 nm fluorescence and the emission was read between 460 nm and 550 nm. […]

Assay [2] has as its target T2, importin-β (Homo sapiens, UniProt Q14974).
T2 construct: made in house; host or cells: BL21 cells (E. coli)
The experiment in a line: fluorescent thermal shift assay (Sypro Orange), importin-β. Format: binding. Particulars: 2 μM importin-β, 50 μM compound. The protocol: (§1) Experiments were performed using Applied Biosystems StepOnePlus™ Real-Time polymerase chain reaction (RT-PCR) System. Protein stocks were diluted in PBS and added 70% v/v to a Microamp® Fast 96-well Reaction Plate and maintained on ice. Compounds (importazole and control compound 3016) were then added at 30% v/v in 3% DMSO. Freshly prepared 100× water based-dilution of Sypro® Orange Protein Gel Stain was then added at 1% v/v to reach a final reaction volume of 20 μl. Samples were mixed by gentle pipetting. After sealing the plates with Microamp™ Optical Adhesive Film, the plate was subjected to a heating cycle composed of a 10 sec prewarming step at 25° C. and a gradient between 25° C. and 95° C. with a 0.3° C. ramp. Data was analyzed using the StepOnePlus™ Software v2.1.

Assay [3] deals with T3, transportin (Homo sapiens, UniProt Q92973).
T3 construct: made in house; host or cells: SG13 cells (E. coli)
T3 sequence (Q92973 1-898): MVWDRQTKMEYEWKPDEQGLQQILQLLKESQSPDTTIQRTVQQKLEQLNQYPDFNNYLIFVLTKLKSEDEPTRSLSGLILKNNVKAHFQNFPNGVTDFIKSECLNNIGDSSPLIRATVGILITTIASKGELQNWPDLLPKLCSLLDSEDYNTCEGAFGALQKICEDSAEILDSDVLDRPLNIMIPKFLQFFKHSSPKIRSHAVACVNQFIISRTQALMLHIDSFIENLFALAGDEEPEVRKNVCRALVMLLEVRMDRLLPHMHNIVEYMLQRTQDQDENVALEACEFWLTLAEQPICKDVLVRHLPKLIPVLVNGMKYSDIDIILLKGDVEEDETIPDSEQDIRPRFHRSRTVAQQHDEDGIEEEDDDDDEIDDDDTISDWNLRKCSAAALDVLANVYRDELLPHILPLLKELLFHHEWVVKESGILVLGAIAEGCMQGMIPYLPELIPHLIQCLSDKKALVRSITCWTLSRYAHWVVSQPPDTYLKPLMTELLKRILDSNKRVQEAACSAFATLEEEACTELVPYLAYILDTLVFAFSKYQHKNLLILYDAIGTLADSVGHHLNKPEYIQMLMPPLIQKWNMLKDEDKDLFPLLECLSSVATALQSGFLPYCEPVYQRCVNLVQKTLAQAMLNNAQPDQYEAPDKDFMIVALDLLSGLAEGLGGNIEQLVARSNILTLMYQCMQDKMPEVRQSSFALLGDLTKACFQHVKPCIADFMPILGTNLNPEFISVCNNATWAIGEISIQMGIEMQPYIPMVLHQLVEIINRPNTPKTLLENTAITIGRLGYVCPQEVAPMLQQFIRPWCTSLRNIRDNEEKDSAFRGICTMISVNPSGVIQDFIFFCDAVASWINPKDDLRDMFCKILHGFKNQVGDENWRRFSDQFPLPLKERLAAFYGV
The experiment in a line: fluorescent thermal shift assay (Sypro Orange), transportin. The following applies: 2 μM protein, 50 μM importazole. Type of assay: binding. The protocol: as §1

The test system of assay [4] is CRM1-mediated export of NFAT-GFP. The assay can be described thus: NFAT-GFP nuclear export after ionomycin washout in HEK 293 cells. Particulars: HEK 293, importazole 40 μM, leptomycin B 10 ng/ml, 1 hour after ionomycin washout. Format: cell-based, human.
Procedure: For all import and export experiments, HEK 293 cells stably expressing NFAT-GFP were grown on glass coverslips to approximately 50% confluency prior to drug treatment. In all cases, importazole was used at 40 μM and leptomycin B was used at 10 ng/ml. For controls, DMSO was used at a concentration of 0.4%. Ionomycin was added at 1.25 μM. Importazole and leptomycin B treatments were all for 1 hour. In all experiments cells were fixed with 4% formaldehyde prior to fluorescence microscopy. DNA was visualized with 1 μg/ml Hoechst dye.

T2 sequence (Q14974 whole entry): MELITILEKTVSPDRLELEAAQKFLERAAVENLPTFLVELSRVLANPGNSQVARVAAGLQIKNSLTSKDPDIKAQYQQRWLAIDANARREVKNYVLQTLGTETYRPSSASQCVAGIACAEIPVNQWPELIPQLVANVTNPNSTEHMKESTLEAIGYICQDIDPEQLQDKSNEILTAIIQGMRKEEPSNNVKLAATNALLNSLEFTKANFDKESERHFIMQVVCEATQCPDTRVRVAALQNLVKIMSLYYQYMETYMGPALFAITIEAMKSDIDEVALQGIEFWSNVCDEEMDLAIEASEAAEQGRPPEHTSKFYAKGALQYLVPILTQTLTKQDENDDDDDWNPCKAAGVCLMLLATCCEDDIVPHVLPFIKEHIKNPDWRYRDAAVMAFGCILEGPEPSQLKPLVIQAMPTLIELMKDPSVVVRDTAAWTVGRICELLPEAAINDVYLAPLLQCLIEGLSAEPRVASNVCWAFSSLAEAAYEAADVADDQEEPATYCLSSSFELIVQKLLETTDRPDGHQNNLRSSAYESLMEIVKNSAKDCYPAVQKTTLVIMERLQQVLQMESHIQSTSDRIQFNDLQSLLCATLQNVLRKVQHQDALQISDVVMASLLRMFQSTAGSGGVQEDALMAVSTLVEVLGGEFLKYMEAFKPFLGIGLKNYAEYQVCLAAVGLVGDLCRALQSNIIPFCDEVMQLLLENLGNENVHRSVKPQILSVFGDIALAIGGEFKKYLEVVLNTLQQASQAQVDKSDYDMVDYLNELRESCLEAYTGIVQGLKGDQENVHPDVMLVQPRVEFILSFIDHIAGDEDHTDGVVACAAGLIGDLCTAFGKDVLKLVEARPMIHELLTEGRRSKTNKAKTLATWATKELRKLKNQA

Turning to `CC(Nc1nc(N2CCCC2)nc2ccccc12)c1ccccc1` (stereo not shown) [importazole, (1-phenyl-ethyl)-(2-pyrrolidin-1-yl-quinazolin-4-yl)-amine], the “effect on FRET signal generated by CFP-Ran and YFP-importin-β” value in assay [1] is “reproducibly disrupted the FRET signal”. Moreover, in assay [2], the “reduction of melting temperature of importin-β” value was 1.72+/−0.27 °C. For the same molecule, the “effect on melting curve of transportin” value in assay [3] is given as “did not significantly affect the melting curves”. For the same molecule, the “CRM1-mediated export of NFAT-GFP” value in assay [4] is given as “occurred efficiently”.
